Consider seven molecules from paper PMC10144301, “Antiseizure Properties of Histamine H3 Receptor Antagonists Belonging 3,4-Dihydroquinolin-2(1H)-Ones” (Molecules, 2023).

Data set [1] concerns maximal electroshock seizure (MES) model. In words: Maximal electroshock seizure (MES) model. Type of data set: in vivo. Particulars: mice; for Duration of tonic hind limb extension (THLE), protection in MES model: i.p., compared to control group. As for the experimental part:
One of the two test models is the MES seizure model, another is the PTZ-induced seizure model. […] In addition, the administration of this dosage can minimize the impact of other possible side effects such as central inhibition and cardiac toxicity. […] In addition, the tested dose of VPA was 300 mg/kg. It could be seen that all animals in the control group experienced hindlimb stiffness after the electrical stimulation in the MES model. In the treated group, the definition of protection was the reduction or vanishing of the tonic hind limb extension (THLE) in mice. […] The neurological safety of the compounds 2h, 4a, and 4b was evaluated by the rotarod test. In the MES test, the definition of protection was the reduction or vanishing of the THLE in mice. In the PTZ test, the seizures were induced through the subcutaneous administration of PTZ (85 mg/kg). The antiseizure activities of the compounds in the PTZ test were evaluated by comparing the convulsion scores in mice between taking the compounds or not. VPA and PIT were used as positive drugs. To explore the anticonvulsive mechanism, compound 4a (10 mg/kg) was co-injected with RAMH (10 mg/kg). In addition, the THLE was recorded and compared with that of the mice treated by compound 4a alone. The detailed experimental operations in the MES, PTZ, and rotarod tests refer to our previous paper. All the animal experiments were carried out on 4-week-old KunMing male mice weighing from 20 to 25 g. The mice were housed collectively in polycarbonate cages in groups of 30, where they were maintained on a 12 h light/dark cycle in a temperature controlled (25 ± 2 °C) laboratory with free access to food and water. In the MES and PTZ models, seven animals were used in each group. In the rotarod test, three animals were used in each group. Each animal was used only once. All the experiments referring to animals were applied according to the Guide for the Care and Use of Laboratory Animals and were approved by the Medical Ethics Committee of Jinggangshan University, approval number: 220811002.
Background: The maximal electroshock test induces tonic seizures with an electrical stimulus.

In data set [2] the test system is PTZ-induced seizure model. The data set is described as follows: Pentylenetetrazole (PTZ)-induced seizure model. The format is in vivo. Particulars: mice, i.p., PTZ 85 mg/kg s.c. As for the experimental part: One of the two test models is the MES seizure model, another is the PTZ-induced seizure model. […] In addition, the administration of this dosage can minimize the impact of other possible side effects such as central inhibition and cardiac toxicity. […] In addition, the tested dose of VPA was 300 mg/kg. The PTZ model was usually used to screen the antiepileptic candidates for the absence of seizures. In this work, compounds 2a-2i, 3a-3c, and 4a-4b were also evaluated for their antiseizure action in the PTZ model in mice, while using VPA as the positive drug. […] The failure of synthesized compounds in the PTZ model is expected because our previously reported H3R inhibitors were also ineffective in the PTZ model. […] A considerable increase in histamine levels was found in the brain after MES-induced seizures, whereas a tendency toward a decrease in histamine levels was observed after PTZ-kindled convulsions. […] The neurological safety of the compounds 2h, 4a, and 4b was evaluated by the rotarod test. In the MES test, the definition of protection was the reduction or vanishing of the THLE in mice. […] The antiseizure activities of the compounds in the PTZ test were evaluated by comparing the convulsion scores in mice between taking the compounds or not. […] In addition, the THLE was recorded and compared with that of the mice treated by compound 4a alone. […]

In data set [3] the test system is electrical kindling model of epilepsy. Particulars: cited from earlier work.
Data set [4] has as its system PTZ-induced seizure model. Details: method as in PMID 27853355. Particulars: Sadek's study; cited from earlier work.
Another data set relates to photosensitive epilepsy. To be noted: dose of 30 mg or 60 mg; cited from earlier work.
Data set [5] concerns maximal electroshock seizure (MES) model. Details: method as in PMID 33325568. To be noted: cited from earlier work.
Data set [6] in a line: Rotarod test for neurotoxicity. The format is in vivo. To be noted: rotarod test, mice, i.p., three animals per group. As for the experimental part: A rotarod test was carried out to estimate the neurological safety of compounds 2h, 4a, and 4b.
The neurological safety of the compounds 2h, 4a, and 4b was evaluated by the rotarod test. In the MES test, the definition of protection was the reduction or vanishing of the THLE in mice. In the PTZ test, the seizures were induced through the subcutaneous administration of PTZ (85 mg/kg). The antiseizure activities of the compounds in the PTZ test were evaluated by comparing the convulsion scores in mice between taking the compounds or not. VPA and PIT were used as positive drugs. To explore the anticonvulsive mechanism, compound 4a (10 mg/kg) was co-injected with RAMH (10 mg/kg). In addition, the THLE was recorded and compared with that of the mice treated by compound 4a alone. The detailed experimental operations in the MES, PTZ, and rotarod tests refer to our previous paper. All the animal experiments were carried out on 4-week-old KunMing male mice weighing from 20 to 25 g. The mice were housed collectively in polycarbonate cages in groups of 30, where they were maintained on a 12 h light/dark cycle in a temperature controlled (25 ± 2 °C) laboratory with free access to food and water. In the MES and PTZ models, seven animals were used in each group. In the rotarod test, three animals were used in each group. Each animal was used only once. All the experiments referring to animals were applied according to the Guide for the Care and Use of Laboratory Animals and were approved by the Medical Ethics Committee of Jinggangshan University, approval number: 220811002.
In general terms: The rotarod test checks motor coordination on a turning rod.

The target of a further data set is H3R (Homo sapiens, UniProt Q9Y5N1). In words: CRE luciferase reporter assay for H3R antagonistic activity. Type of data set: cell-based. Here is the method:
Firstly, all the target compounds were screened at 5 μM and 50 μM. […] The detailed experimental operations refer to the previous paper.
(In general: A reporter such as luciferase makes a cellular process visible.)

Values joined by “and” are separate entries in the source; they are usually repeats but may differ in a detail not shown here. Identical values can stand only once. Some results are limits rather than exact numbers.

Sequence of H3R (Q9Y5N1 whole entry, species assumed): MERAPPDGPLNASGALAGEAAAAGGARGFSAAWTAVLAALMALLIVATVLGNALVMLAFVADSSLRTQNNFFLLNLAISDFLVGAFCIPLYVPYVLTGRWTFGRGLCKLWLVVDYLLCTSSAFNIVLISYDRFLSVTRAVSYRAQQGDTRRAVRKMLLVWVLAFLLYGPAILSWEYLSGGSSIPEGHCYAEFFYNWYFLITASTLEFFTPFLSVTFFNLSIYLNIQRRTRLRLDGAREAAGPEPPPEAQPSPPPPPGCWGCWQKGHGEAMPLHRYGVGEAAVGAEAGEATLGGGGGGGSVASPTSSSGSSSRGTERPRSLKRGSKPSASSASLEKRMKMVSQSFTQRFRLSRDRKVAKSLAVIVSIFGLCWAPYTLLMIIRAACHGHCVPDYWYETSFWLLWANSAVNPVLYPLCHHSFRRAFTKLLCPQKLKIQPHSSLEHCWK

With `Clc1ccc(CCCOCCCN2CCCCC2)cc1` [PIT, Pitolisant, reference compound], in data set [1] (10 mg/kg), the “Duration of tonic hind limb extension (THLE), protection in MES model” value (shortened to “Duration of tonic hind limb extension”) is on record as “decreased the duration of THLE significantly”. Moreover, in [1] (30 mg/kg), the “THLE induced by MES” value was “fully abolished the THLE”. Also, in data set [1] (doses of 3, 10 and 30 mg/kg), the “Dose dependence of protection in MES model” value is “dose-dependent antiseizure activity”. The “Protection against seizures induced by PTZ (seizure score)” value in [2] (10 mg/kg) is “did not exhibit protection”. For the same molecule, in data set [3], the “Antiseizure activity in electrical kindling model” value is on record as “powerful antiseizure activity”. Besides, in data set [4], the “Effect in PTZ model” value is given as “failure”. In the data set on photosensitive epilepsy, the “Effect on photosensitive epilepsy and EEG” value was “can inhibit photosensitive epilepsy”. Besides, the Antiseizure activity entry in data set [5] (10 mg/kg, previous work) is “showed an antiseizure activity”. The Neurotoxicity is 0/3 in [6] (10 mg/kg); 0/3 in [6] (30 mg/kg); “no neurotoxicity and 0/3” in data set [6] (100 mg/kg, 100 mg/kg).

In general, IC50 refers to the concentration that inhibits the measured activity by half. Read a low IC50 as higher potency. The melting point is the temperature, or range, at which the solid turns liquid. As to `CCN(CC)CCCOc1ccc2c(c1)CCC(=O)N2` [Compound 2a, 6-(3-(Diethylamino)propoxy)-3,4-dihydroquinolin-2(1H)-one hydrochioride], the melting point lay within 68 to 70 °C. Moreover, the “Duration of tonic hind limb extension” value in data set [1] (10 mg/kg) is recorded as “no significant difference”. This molecule also came in with an IC50 on H3R of 520 nM.

As to `Cc1nc(-c2ccc(OCCCN3CCCCC3)cc2)co1` [I], the “Antiseizure activity in MES test when combined with RAMH” value in data set [5] (administrated combined with H3R agonist RAMH) is given as “completely vanished”.

For `CCCC(CCC)C(=O)[O-].[Na+]` [VPA, valproic sodium, reference compound], the “Duration of tonic hind limb extension” value in data set [1] (300 mg/kg) is given as “decreased the duration of THLE significantly”. Also, the “Protection against seizures induced by PTZ (seizure score)” value in data set [2] (300 mg/kg) is on record as “fully inhibited the seizure induced by PTZ”.

`O=C1CCc2cc(OCCCN3CCCC3)ccc2N1` [Compound 2c, 6-(3-(Pyrrolidin-1-yl)propoxy)-3,4-dihydroquinolin-2(1H)-one hydrochioride] showed a melting point of 120 to 122 °C. Further, the “Duration of tonic hind limb extension” value in [1] (10 mg/kg) was “no significant difference”. On H3R, this molecule gave an IC50 of 470 nM.

Molecule `O=C1CCc2cc(OCCCN3CCN(c4ccccc4)CC3)ccc2N1` [Compound 2f, 6-(3-(4-Phenylpiperazin-1-yl)propoxy)-3,4-dihydroquinolin-2(1H)-one] showed a melting point of 199 to 201 °C. For the same molecule, the IC50 against H3R turned out to be 25600 nM.

`O=C1CCc2cc(OCCCN3CCNCC3)ccc2N1` [Compound 2d, 6-(3-(Piperazin-1-yl)propoxy)-3,4-dihydroquinolin-2(1H)-one]: the melting point was in the range of 150 to 151 °C. This molecule came in with an IC50 against H3R greater than 50000 nM.
